Data published in patent EP1506285B1, “COMBINATIONS OF ANTI-DR5 ANTIBODIES AND ANTI-DR4 ANTIBODIES AND OTHER THERAPEUTIC AGENTS” (UAB RESEARCH FOUNDATION, priority 2001, dated 2003).
Residues, ends and D or L forms follow the SMILES beside them. *: point of attachment. Cbz = O=C(OCc1ccccc1)*; CH2F = FC*

Experiments:
2LMP s.c. tumors = assay: TRA-8 therapy alone or with chemotherapy or radiation, breast cancer xenografts; type: in vivo, Athymic nude mice
Protocol: Athymic nude mice were injected s.c. with 3 x 10^7 2LMP cells. […] The growth of tumors was monitored over time. […] Tumor size and regression rates were determined.
Data from 6 independent experiments were analyzed by individual experiment. Treatment combinations were compared with respect to in vivo anti-tumor efficacy, i.e., inhibition of tumor growth, which was measured as three endpoints; extension of tumor doubling times, percentage of tumor regressions, and growth rates over time. The actual number of days at which the tumor doubled in surface area (product of two diameters) relative to baseline on day 7 after tumor cell injection was used in the doubling time analysis. The nonparametric Kruskal-Wallis test was used for median tumor doubling time comparisons between treatments. Fisher's exact test was used to compare the proportions of tumor regressions and relapse-free regressions across treatment groups. To determine if any combination therapy produced significant synergistic inhibition of tumor growth, i.e., more than additive, the growth curves from the serial area measurements were compared using a linear mixed model approach over the first 3 weeks after start of therapy (Lindsey, J.K. Models for Repeated Measurements, pp. 100-142, Oxford, 1993). To test for synergistic effects of the combination therapies, an interaction term was included in the model. If the interaction term was significant and the effect was inhibition of growth at a rate greater than additive then the interaction was considered synergistic.
A total of 166 animals, 10 treatment groups, and 6 independent experiments were included in the aggregate analysis. Treatment combinations were compared with respect to in vivo anti-tumor efficacy. The median tumor doubling times were analyzed using the Kruskal-Wallis test and Fisher's exact test was used to compare the proportions of tumor regressions and relapse-free regressions across treatment groups.

2LMP xenografts = assay: Analysis of apoptosis in xenografts, TUNEL; type: in vivo, Athymic nude mice; details: day 14; TRA-8 100 µg i.p. days 7, 10; adriamycin 3 mg/kg or paclitaxel 10 mg/kg days 8, 11
Protocol: One group of mice was untreated. The xenografts were dissected for the study of apoptosis on day 14 after tumor cell injection. The reason for the substantial reduction in treatment intensity compared to our standard treatment protocol was to allow adequate tumor tissue for analysis on day 14. Tunel assay for apoptosis in tumor xenografts was performed as follows. Five-micron paraffin sections of tissue were mounted on Superfrost/Plus slides and heated at 58°C for 1 h. Tissue sections were deparaffinized in three changes of xylene and rehydrated with one change of absolute ethanol, 95% ethanol, and 70% ethanol, each in 5-min increments. Then, the sections were placed in Tris-buffered saline (0.5M Tris base, 0.15 M NaCl, 0.0002% Triton X-100, pH 7.6). Apoptotic nuclei were detected using an Apop Tag Peroxidase kit (Intergen, Purchase, NY). Proteinase K (20 µg/ml in distilled deionized H2O) was added to the tissue specimens and incubated at room temperature for 15 min. Endogenous peroxidases were quenched with an aqueous solution of 3% hydrogen peroxide for 5 min. Sections were treated with an equilibration buffer for 3 0 min and then incubated with the TdT/enzyme (diluted in labeling reaction mix) for 1 h at 37°C using parafilm covers. During this incubation, the TdT enzyme binds the 3'-OH ends of DNA fragments and catalyzes the addition of digoxigenin-labeled and unlabeled deoxynucleotides. Negative controls were incubated with distilled H2O (diluted in labeling reaction mix) instead of the TdT enzyme. A stop buffer was added for 10 min at room temperature to terminate the labeling reaction. An anti-digoxigenin conjugate was added to each slide for 30 min. The chromagen 3,3' DAB was used to visualize the labeled 3' OH end of DNA fragments. The slides were then rinsed in deionized water and lightly counterstained with hematoxylin, dehydrated using graded alcohols and xylene and coverlsipped using Permount. Approximately 10 random fields were evaluated for percentage of Tunel stained and percentage of intensely stained apoptotic bodies throughout the tissue.

CLL B cells = assay: Cytotoxicity to chronic lympholytic leukemia B cells in vitro; type: cell-based, human; details: five patients; compared to normal primary B cells
Jurkat cells = assay: Cell viability / apoptosis induction in Jurkat cells; type: cell-based, human; details: 50 ng/ml TRA-8 overnight
Protocol: Cell viability is determined using (1) the ATPLite kit according to the manufacturer's instructions (Packard Instruments, Meriden, CT); (2) the MTT Cell proliferation/viability kit (Sigma); or (3) PI staining of dead cells and analyzed by flow cytometry. At end of culture, cells are stained with 10 µg/ml PI and PI negative cells are gated as viable cells. For analysis of condensed nuclei of hepatocytes, cells are stained with 10 ng/ml […] (Molecular Probes) and analyzed by flow cytometry.

[1] = target: human DR5/hIgG1 fusion protein (residues 1-180 of the extracellular portion of DR5 fused to the constant region of human IgG1; immunogen, ~50 kDa) (human) (UniProt O14763); assay: ELISA on DR5-Ig, one-site binding model of non-linear regression
[2] = target: T1, human DR5, full length, on cells (human, UniProt O14763 56-440); assay: radioisotope-labelled TRA-8 on a breast cancer cell line, compared with soluble TRAIL
T1 construct: whole, on cells; Used for Cos-7 cells transfected with full-length human DR5 cDNA and for human cells, cell lines and tissues that carry DR5 of their own; also called cell surface DR5; TRAIL-R2

Molecule: COc1cccc2c1C(=O)c1c(O)c3c(c(O)c1C2=O)C[C@@](O)(C(=O)CO)C[C@@H]3O[C@H]1C[C@H](N)[C@H](O)[C@H](C)O1 [Adriamycin, doxorubicin]
- complete regressions of tumor (2LMP s.c. tumors; TRA-8/adriamycin experiment (Figure 25)): no complete regressions
- tumor growth compared to untreated controls (2LMP s.c. tumors; TRA-8/adriamycin experiment (Figure 25), 200 µg TRA-8, adriamycin 6 mg/kg i.v.): did not differ from controls
- intense stained cells (TUNEL) (2LMP xenografts): 6%
- stained cells (TUNEL) (2LMP xenografts): 8%

Molecule: Cn1cc(C2=C(c3cn(CCCN)c4ccccc34)C(=O)NC2=O)c2ccccc21 [BisVIII, Bisindolylmaleimide VIII]
- susceptibility of CLL B cells (CLL B cells): sensitive

Molecule: CC(=O)O[C@H]1C(=O)[C@@]2(C)[C@H]([C@H](OC(=O)c3ccccc3)[C@]3(O)C[C@H](OC(=O)[C@H](O)[C@@H](NC(=O)c4ccccc4)c4ccccc4)C(C)=C1C3(C)C)[C@]1(OC(C)=O)CO[C@@H]1C[C@@H]2O [Paclitaxel]
- complete regressions (2LMP s.c. tumors; TRA-8/paclitaxel experiment (Figure 26)): none
- intense stained cells (TUNEL) (2LMP xenografts): 2%
- stained cells (TUNEL) (2LMP xenografts): 7%

Molecule: CC(NC(=O)C(NC(=O)OCc1ccccc1)C(C)C)C(=O)NC(CC(=O)O)C(=O)CF (stereo not drawn) [Z-VAD] (Cbz-Val-Ala-Asp-CH2F; configuration not given here)
- inhibition of TRA-8-mediated cell death by caspase inhibitor (Jurkat cells): completely inhibited

Molecule: TRA-8 anti-human DR5 monoclonal antibody
- Kd [1]: 3 nM

Molecule: soluble recombinant human TRAIL (FLAG-tagged, Alexis) (from UniProt P50591 95-281) (ligand)
- Kd [1]: 59 nM

B1: TRA-8 anti-human DR5 monoclonal antibody (antibody, mouse IgG1, kappa, V domains shown)
VH: EVMLVESGGGLVKPGGSLKLSCAASGFTFSSYVMSWVRQTPEKRLEWVATISSGGSYTYYPDSVKGRFTISRDNAKNTLYLQMSSLRSEDTAMYYCARRGDSMITTDYWGQGTTLTVSS
VL: DIVMTQSHKFMSTSVGDRVSITCKASQDVGTAVAWYQQKPGQSPKLLIYWASTRHTGVPDRFTGSGSGTDFTLTISNVQSEDLADYFCQQYSSYRTFGGGTKLEIKR
notes: Mouse IgG1, kappa; also called monoclonal anti-DR5 antibody (clone: TRA-8); mouse-mouse hybridoma TRA-8, ATCC PTA-1428
- fold higher binding activity than soluble TRAIL [2]: ≥ 50 fold
